Source: paper PMC10035951, “Selenium-analogs based on natural sources as cancer-associated carbonic anhydrase isoforms IX and XII inhibitors” (Journal of Enzyme Inhibition and Medicinal Chemistry, 2023)
pKi: −log10 of the molar value. Like-named read-outs stand apart in the source and are kept apart here.

Assays:
hCA I = target: T1, hCA I (Homo sapiens, UniProt P00915); test: CA catalysed CO2 hydration, stopped-flow inhibition; assay type: biochemical
T1 construct: made in house
Method: (§1) The uncatalyzed rates were determined in the same manner and subtracted from the total observed rates. Stock solutions of inhibitor (0.1 mM) were prepared in distilled − deionized water and dilutions up to 0.01 nM were done thereafter with the assay buffer. Inhibitor and enzyme solutions were preincubated together for 15 min at room temperature before assay to allow for the formation of the E − I complex. The inhibition constants were obtained by nonlinear least-squares methods using PRISM 3 and the Cheng − Prusoff equation, as reported earlier,[39]^,[40] and represent the mean from at least three different determinations. […] All human CA (hCA) isoforms were recombinant ones obtained in-house as reported earlier.[41]^,[42]

hCA II = target: T2, hCA II (Homo sapiens, UniProt P00918); test: as above; assay type: biochemical
T2 construct: made in house
Method: as §1

hCA IX = target: T3, hCA IX (Homo sapiens, UniProt Q16790); test: as above; assay type: biochemical; conditions: for pKi: recombinant hCA IX, stopped-flow CO2 hydration, 15 min preincubation
T3 construct: made in house
Method: as §1

hCA XII = target: T4, hCA XII (Homo sapiens, UniProt O43570); test: as above; assay type: biochemical
T4 construct: made in house
Method: An Applied Photophysics stopped-flow instrument has been used for assaying the CA catalysed CO2 hydration activity.[38] Phenol red (at a concentration of 0.2 mM) has been used as an indicator, working at the absorbance maximum of 557 nm, with 20 mM Hepes (pH 7.5) as a buffer and 20 mM Na2SO4 (for maintaining constant the ionic strength), following the initial rates of the CA-catalysed CO2 hydration reaction for a period of 10–100 s. The CO2 concentrations ranged from 1.7 to 17 mM for the determination of the kinetic parameters and inhibition constants. […]. The uncatalyzed rates were determined in the same manner and subtracted from the total observed rates. Stock solutions of inhibitor (0.1 mM) were prepared in distilled − deionized water and dilutions up to 0.01 nM were done thereafter with the assay buffer. Inhibitor and enzyme solutions were preincubated together for 15 min at room temperature before assay to allow for the formation of the E − I complex. The inhibition constants were obtained by nonlinear least-squares methods using PRISM 3 and the Cheng − Prusoff equation, as reported earlier,[39]^,[40] and represent the mean from at least three different determinations. The enzyme concentrations were in the range 3–11 nM. All human CA (hCA) isoforms were recombinant ones obtained in-house as reported earlier.[41]^,[42]

[1] = tested on: hCA isoforms I, II, VA, IX, and XII; test: CA inhibition, summary statements over all tested isoforms; assay type: biochemical, human; conditions: for isoform selectivity (in words): from the Ki values of Table 1; for pKi: all CA isoforms tested for series b, read-out: Ki range over all CA isoforms
Method: An Applied Photophysics stopped-flow instrument has been used for assaying the CA catalysed CO2 hydration activity.[38] Phenol red (at a concentration of 0.2 mM) has been used as an indicator, working at the absorbance maximum of 557 nm, with 20 mM Hepes (pH 7.5) as a buffer and 20 mM Na2SO4 (for maintaining constant the ionic strength), following the initial rates of the CA-catalysed CO2 hydration reaction for a period of 10–100 s. The CO2 concentrations ranged from 1.7 to 17 mM for the determination of the kinetic parameters and inhibition constants. For each inhibitor, at least six traces of the initial 5 − 10% of the reaction have been used for determining the initial velocity. The uncatalyzed rates were determined in the same manner and subtracted from the total observed rates. Stock solutions of inhibitor (0.1 mM) were prepared in distilled − deionized water and dilutions up to 0.01 nM were done thereafter with the assay buffer. Inhibitor and enzyme solutions were preincubated together for 15 min at room temperature before assay to allow for the formation of the E − I complex. The inhibition constants were obtained by nonlinear least-squares methods using PRISM 3 and the Cheng − Prusoff equation, as reported earlier,[39]^,[40] and represent the mean from at least three different determinations. The enzyme concentrations were in the range 3–11 nM. All human CA (hCA) isoforms were recombinant ones obtained in-house as reported earlier.[41]^,[42]

[2] = recombinant hCA I, stopped-flow CO2 hydration, 15 min preincubation, read-out: Ki hCA I
[3] = recombinant hCA II, stopped-flow CO2 hydration, 15 min preincubation, read-out: Ki hCA II
[4] = recombinant hCA XII, stopped-flow CO2 hydration, 15 min preincubation, read-out: Ki hCA XII

T4 sequence (O43570 25-354): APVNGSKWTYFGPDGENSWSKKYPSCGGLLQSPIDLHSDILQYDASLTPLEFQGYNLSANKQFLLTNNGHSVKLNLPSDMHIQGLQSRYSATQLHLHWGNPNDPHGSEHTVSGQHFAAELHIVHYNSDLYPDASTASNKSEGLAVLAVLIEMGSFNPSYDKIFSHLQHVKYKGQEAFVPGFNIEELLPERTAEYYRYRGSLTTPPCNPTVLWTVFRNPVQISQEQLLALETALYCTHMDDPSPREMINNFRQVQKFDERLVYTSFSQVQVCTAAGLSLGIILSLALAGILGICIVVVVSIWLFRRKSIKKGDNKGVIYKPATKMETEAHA
T1 sequence (P00915 whole entry): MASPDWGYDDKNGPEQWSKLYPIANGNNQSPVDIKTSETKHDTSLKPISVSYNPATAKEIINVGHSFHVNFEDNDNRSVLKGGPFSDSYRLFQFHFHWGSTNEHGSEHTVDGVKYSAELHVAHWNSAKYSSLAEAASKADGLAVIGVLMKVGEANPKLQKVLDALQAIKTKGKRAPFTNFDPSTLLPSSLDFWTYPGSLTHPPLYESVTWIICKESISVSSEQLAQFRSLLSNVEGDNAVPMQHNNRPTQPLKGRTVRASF

| SMILES | pKi (hCA I; [2]) | pKi (hCA II; [3]) | pKi (hCA IX) | pKi (hCA XII; [4]) | further results |
| --- | --- | --- | --- | --- | --- |
| C=CC[Se]C(=O)c1ccco1 [Compound 11a] | < 4.00 | < 4.00 | < 4.00 |  |  |
| C#CC[Se]C(=O)C(C)c1ccc(CC(C)C)cc1 (stereo not shown) [Compound 15b] | 4.11 | < 4.00 | 4.32 | < 4.00 | isoform selectivity (in words) [1]: selectivity for cytosolic CA I isoform and tumour-associated CA IX |
| C=CC[Se]C(=O)c1ccccc1OC(C)=O [Compound 14a] | < 4.00 | < 4.00 | < 4.00 |  |  |
| C#CC[Se]C(=O)c1cccs1 [Compound 9b] | 5.04 | 4.33 | < 4.00 | 4.01 |  |
| C#CC[Se]C(=O)c1ccccc1OC(C)=O [Compound 14b] | 5.30 | 4.26 | < 4.00 | 4.05 |  |
| C=CC[Se]C(=O)c1cccnc1 [Compound 7a] | < 4.00 | < 4.00 | < 4.00 |  |  |
| C#CC[Se]C(=O)C12CC3CC(CC(C3)C1)C2 [Compound 1b] | < 4.00 | < 4.00 | 5.04 | 4.55 | isoform selectivity (in words) [1]: selectivity for tumour-associated isoforms IX and XII |
| C#CC[Se]C(=O)c1ccccc1O [Compound 13b] | 4.63 | < 4.00 | 4.26 | < 4.00 | isoform selectivity (in words) [1]: selectivity for cytosolic CA I isoform and tumour-associated CA IX |
| C#CC[Se]C(=O)c1cccnc1 [Compound 7b] | 4.52 | 4.18 | 4.42 | 4.07 |  |
| C#CC[Se]C(=O)c1ccccc1Nc1cccc(C)c1C [Compound 18b] | < 4.00 | 5.35 | 5.02 | 4.33 | fold greater inhibition potency for CA II than for CA I (hCA II; CA II versus CA I): 22 fold |
| C#CC[Se]C(=O)c1ccccc1Cl [Compound 3b] |  |  | 4.38 |  | pKi (hCA I): 4.38; pKi (hCA II): < 4.00; pKi (hCA XII): 4.54 |
| C=CC[Se]C(=O)C=Cc1ccccc1 [Compound 5a] | < 4.00 | < 4.00 | < 4.00 |  |  |
| C#CC[Se]C(=O)[C@@H](C)c1ccc2cc(OC)ccc2c1 [Compound 16b] | 4.04 | < 4.00 | 4.61 | < 4.00 | isoform selectivity (in words) [1]: selectivity for cytosolic CA I isoform and tumour-associated CA IX |
| C=CC[Se]C(=O)c1sccc1Cl [Compound 10a] | < 4.00 | < 4.00 | < 4.00 |  |  |
| C=CC[Se]C(=O)C12CC3CC(CC(C3)C1)C2 [Compound 1a] | < 4.00 | < 4.00 | < 4.00 |  |  |
| C=CC[Se]C(=O)c1ccccc1 [Compound 2a] | < 4.00 | < 4.00 | < 4.00 |  |  |

| SMILES | pKi (hCA I; [2]) | pKi (hCA II; [3]) | pKi (hCA IX) | pKi (hCA XII; [4]) | further results |
| --- | --- | --- | --- | --- | --- |
| C#CC[Se]C(=O)c1ccco1 [Compound 11b] | 5.07 | 4.30 | 5.15 | 4.22 |  |
| C#CC[Se]C(=O)CCc1ccccc1 [Compound 6b] |  |  | 4.60 |  | pKi (hCA I): 5.51; times more potent than analog without the spacer (2b) (hCA I; CA I, Ki ratio versus 2b): 26 times; times more potent than analog with the double-bond spacer (5b) (hCA I; CA I, Ki ratio versus 5b): 7.7 times; pKi (hCA II): 5.02; pKi (hCA XII): 5.15; pKi [1]: 4.31 to 5.66 |
| C=CC[Se]C(=O)c1ccccc1O [Compound 13a] | < 4.00 | < 4.00 | < 4.00 |  |  |
| C#CC[Se]C(=O)c1cccnc1Cl [Compound 8b] | 5.66 | 5.07 | 4.31 | 5.02 | increase of inhibitory activity compared to unsubstituted pyridine (hCA I; CA I, Ki ratio versus 7b): 13.7 times; pKi [1]: 4.31 to 5.66 |
| C=CC[Se]C(=O)c1cccs1 [Compound 9a] | < 4.00 | < 4.00 | < 4.00 |  |  |
| C#CC[Se]C(=O)c1ccc2c(c1)OCO2 [Compound 4b] | 4.50 | 4.27 | 4.17 | < 4.00 |  |
| C#CC[Se]C(=O)Cc1c(C)n(C(=O)c2ccc(Cl)cc2)c2ccc(OC)cc12 [Compound 17b] | < 4.00 | < 4.00 | 4.23 | < 4.00 | isoform selectivity (in words) [1]: selectivity for tumour-associated isoform IX |
| C#CC[Se]C(=O)c1sccc1Cl [Compound 10b] | < 4.00 | 4.05 | < 4.00 | 4.01 |  |
| C=CC[Se]C(=O)c1ccccc1Cl [Compound 3a] | < 4.00 | < 4.00 | < 4.00 |  |  |
| C#CC[Se]C(=O)c1ccccc1Nc1cccc(C(F)(F)F)c1 [Compound 19b] | < 4.00 | < 4.00 | 5.02 | < 4.00 | isoform selectivity (in words) [1]: selectivity for tumour-associated isoform IX |
| C#CC[Se]C(=O)c1ccno1 [Compound 12b] | 4.23 | < 4.00 | 4.65 | 4.18 | decrease of inhibitory capacity on substitution of furan ring (11b) by isoxazole (hCA I; CA I, Ki ratio versus 11b): ~7 fold |
| C=CC[Se]C(=O)c1cccnc1Cl [Compound 8a] | < 4.00 | < 4.00 | 4.05 |  |  |
| C#CC[Se]C(=O)C=Cc1ccccc1 [Compound 5b] | 4.62 | 4.37 | 4.10 | < 4.00 |  |
| C=CC[Se]C(=O)[C@@H](C)c1ccc2cc(OC)ccc2c1 [Compound 16a] | < 4.00 | < 4.00 | < 4.00 |  |  |
| C#CC[Se]C(=O)c1ccccc1 [Compound 2b] | 4.09 | < 4.00 | 5.11 | 4.25 | times higher inhibition of CA IX than of isoform I (hCA IX; CA IX versus CA I): ~13 times; times higher inhibition of CA IX than of isoform II (hCA IX; CA IX versus CA II): ~10 times |
| C=CC[Se]C(=O)c1ccno1 [Compound 12a] | < 4.00 | < 4.00 | < 4.00 |  |  |
